Bounds are passed on as bounds.

This experiment concerns the target T1, human bradykinin B2 receptor (hB2R) (Homo sapiens, UniProt P30411).
T1 sequence (P30411 1-391): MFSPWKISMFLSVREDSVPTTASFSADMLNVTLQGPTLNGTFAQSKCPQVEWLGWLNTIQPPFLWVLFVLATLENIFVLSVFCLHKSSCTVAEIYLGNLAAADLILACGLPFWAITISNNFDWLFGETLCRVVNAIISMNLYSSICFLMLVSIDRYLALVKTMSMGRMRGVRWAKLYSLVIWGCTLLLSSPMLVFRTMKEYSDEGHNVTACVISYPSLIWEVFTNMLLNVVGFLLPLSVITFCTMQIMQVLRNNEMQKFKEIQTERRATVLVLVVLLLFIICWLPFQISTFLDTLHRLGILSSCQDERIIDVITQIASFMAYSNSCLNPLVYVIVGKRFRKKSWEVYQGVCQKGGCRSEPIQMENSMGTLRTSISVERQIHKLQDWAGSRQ
As to the kind of experiment: cell-based human bradykinin B2 receptor calcium mobilization (hB2R-CaM) assay. Conditions: antagonistic activity; HTS041C cells; bradykinin at EC80; 25 min preincubation at 37° C.; read-out: IC50-value towards human bradykinin B2 receptor (hB2R). The source says: The following cell-based human bradykinin B2 receptor calcium mobilization (hB2R-CaM) assay was used to determine the antagonistic activity of compounds selected from the example compounds Nos. 1 to 13 towards human bradykinin B2 receptor (hB2R). The assay is defined herein as a standard in vitro B2 receptor activity assay, which can be used to determine IC50 values of the compounds according to the present invention, e. g. the compounds shown in Examples 1-4.
The antagonistic activity of compounds according to the present invention was investigated with the hB2R-CaM assay using the B2 Bradykinin Receptor Stable Cell Line HTS041C (Eurofins, St. Charles MO) and the FLIPR Calcium 6 Assay Kit (Molecular Devices, Wokingham, UK) according to the instructions of the providers. CaM assay measurements were performed with a Flexstation 3 System (Molecular Devices) which allows the precise addition of compounds (B2R antagonists) and bradykinin (B2R agonist) to the cells and adjacent continuous recording of the time-dependent CaM assay signals.
HTS041C cells were cultured in high glucose DMEM cell culture medium (Lonza) supplemented with 10% heat-inactivated FBS (PAN Biotech), 10 mM HEPES, Penicillin/Streptomycin (200 U/mL, 200 μg/mL), 1× non-essential amino acids (Lonza), and 250 μg/mL G418 (Invivogen) in cell incubator at 37° C. in a 5% CO2 atmosphere. One day before the CaM assay experiments cells were seeded in 200 μL DMEM cell culture medium with reduced FBS (5%) and without G418 on clear bottom black 96 well plates (ThermoFisher #165305). Cell starvation was carried out by incubation (37° C., 5% CO2) of 70.000 cells/well for 24 h to 28 h. Immediately prior calcium dye-loading the medium was carefully aspirated and cells were washed with Hank's balanced salt solution (HBSS, Gibco) containing Ca^2+, Mg^2+ and 20 mM HEPES, adjusted to pH 7.4 (HBSS+).
For calcium dye-loading one FLIPR 6 assay aliquot was dissolved in 20 mL HBSS+. 150 μL of the dye loading solution was added to cell plate and incubated for 120 min at 37° C. and 5% CO2. After dye loading the cell plate was immediately transferred to the pre-warmed (37° C.) Flexstation 3 System for CaM assaying.
Freshly prepared compound (B2 receptor antagonists) dilution series (8 pt, n=2) and bradykinin (B2 receptor agonist) solution in non-binding plates (Costar) were transferred to the Flexstation System (source plate) shortly before starting the experiment. Bradykinin was added in EC80 concentration determined in n>3 preliminary experiments with 8 pt concentration response curves (n=8)). CaM assay was executed by Flexstation 3 System starting with recording of calcium-sensitive dye fluorescence in bottom-read Flex modus with ex/em=485 nm/525 nm, cut off(em)=515 nm After 20 s, 50 μL of 4-fold concentrated compound dilutions were added to the cells resulting in a final DMSO (Sigma) concentration of 0.1% in the cell plate. CaM signals were monitored for 80 s after additions for detection of potential agonistic activities. Prior to bradykinin stimulus compound- and vehicle-treated cells were incubated for 25 min at 37° C. within the Flexstation System. Then 50 μL of a 5-fold concentrated bradykinin solution (HBSS+, 0.1% DMSO) was added to trigger CaM signals (Read out: Max-Min values) which were measured for 80 s post bradykinin stimulus.
IC50 determinations were performed by 4 parameter logistic model curve fitting of the 8 pt (n=2) compound concentration response curves using XLFIT (IDBS) software.
A general note: Calcium flux is commonly read through the fluorescence of an indicator in the cells.
Broadly, the IC50 is the concentration at which inhibition is half-maximal. Consider `Cc1cc(-n2cc(F)cn2)c2cccc(OCc3c(Cl)cc(F)cc3[C@@H]3COCCN3C(=O)COC(F)F)c2n1` [Compound No. 1, (R)-1-(3-(3-chloro-5-fluoro-2-((4-(4-fluoro-1H-pyrazol-1-yl)-2-methylquinolin-8-yloxy)methyl)phenyl)morpholino)-2-(difluoromethoxy)ethanone], for which the 50% inhibitory concentration (IC50) is ≤ 0.025 µM.

In the case of `[2H][C@@]1(c2cc(F)cc(Cl)c2COc2cccc3c(-n4cc(F)cn4)cc(C)nc23)COCCN1C(=O)COC(F)F` [Compound No. 1A, 1-[(3R)-3-[3-chloro-5-fluoro-2-({[4-(4-fluoropyrazol-1-yl)-2-methylquinolin-8-yl]oxy}methyl)phenyl](3-deutero)morpholin-4-yl]-2-(difluoromethoxy)ethanone], the IC50 was ≤ 0.025 µM.

On to `Cc1cc(-c2ncnn2C)c2cccc(OCc3c(Cl)cc(F)cc3[C@@H]3COCCN3C(=O)COC(F)F)c2n1` [Compound No. 2, (R)-1-(3-(3-chloro-5-fluoro-2-((2-methyl-4-(1-methyl-1H-1,2,4-triazol-5-yl)quinolin-8-yloxy)methyl)phenyl)morpholino)-2-(difluoromethoxy)ethanone], for which the half-maximal inhibitory concentration (IC50) is ≤ 0.025 µM.

Consider `CC1=N[C@H](c2cc(F)cc(Cl)c2COc2cccc3c(-n4cc(F)cn4)cc(C)nc23)CO1` [Compound No. 3, (R)-4-(3-chloro-5-fluoro-2-((4-(4-fluoro-1H-pyrazol-1-yl)-2-methylquinolin-8-yloxy)methyl)phenyl)-2-methyl-4,5-dihydrooxazole], for which the half-maximal inhibitory concentration (IC50) fell in the range of 0.501 to 5 µM.

On to `Cc1cc(-n2cc(F)cn2)c2cccc(OCc3c(Cl)cc(F)cc3[C@@H]3COCC(=O)N3)c2n1` [compound 4], for which the IC50 was 0.501 to 5 µM.

As for `Cc1cc(-n2cc(F)cn2)c2cccc(OCc3c(Cl)cc(F)cc3[C@@H]3COCCN3)c2n1` [compound 5], the IC50 was 0.501 to 5 µM.

`Cc1cc(-n2cc(F)cn2)c2cccc(OCc3c(Cl)cc(F)cc3[C@@H]3COCCN3C(=O)[C@@H](C)O)c2n1` [compound 6]: the IC50 fell in the range of 0.026 to 0.5 µM.

On to `Cc1cc(-n2cc(F)cn2)c2cccc(OCc3c(Cl)cc(F)cc3[C@@H]3COCCN3C(=O)C(C)(C)O)c2n1` [compound 7], for which the half-inhibitory concentration (IC50) lay in the range of 0.026 to 0.5 µM.

Regarding `Cc1cc(-n2cc(F)cn2)c2cccc(OCc3c(Cl)cc(F)cc3[C@@H]3COCCN3C(=O)c3cnco3)c2n1` [compound 8], the half-inhibitory concentration (IC50) is 0.026 to 0.5 µM.

As for `Cc1cc(-c2ncnn2C)c2cccc(OCc3c(Cl)cc(F)cc3[C@@H]3COCCN3C(=O)C(C)(C)O)c2n1` [compound 9], the IC50 is 0.026 to 0.5 µM.

As for `Cc1cc(-c2ncnn2C)c2cccc(OCc3c(Cl)cc(F)cc3[C@@H]3COCCN3C(=O)[C@H](C)O)c2n1` [compound 10], the half-inhibitory concentration (IC50) is ≤ 0.025 µM.

In the case of `Cc1cc(-c2ncnn2C)c2cccc(OCc3c(Cl)cc(F)cc3[C@@H]3COCCN3C(=O)c3cnco3)c2n1` [compound 11], the IC50 is ≤ 0.025 µM.

Consider `Cc1cc(-c2ncnn2C)c2cccc(OCc3c(Cl)cc(F)cc3[C@@H]3COCC(=O)N3)c2n1` [compound 12], for which the concentration for half-maximal inhibition (IC50) fell in the range of 0.026 to 0.5 µM.

As for `Cc1cc(-c2ncnn2C)c2cccc(OCc3c(Cl)cc(F)cc3[C@@H]3COCCN3)c2n1` [compound 13], the concentration for half-maximal inhibition (IC50) lay within 0.026 to 0.5 µM.

The values are drawn from patent US12391681B2, “(R)-3-(3-chloro-5-fluoro-2-((4-(1h-pyrazol-1-yl)-2-methylquinolin-8-yloxy)methyl)phenyl)morpholine derivatives and related compounds as bradykinin (BK) B2 receptor antagonist for treating skin diseases” (Pharvaris GmbH, priority 2019, dated 2025).
